How the values were obtained:
[1] = compound: C1CC(C1)(C(=O)[O-])C(=O)[O-].N.N.[Pt+2] [Carboplatin]; settings: max 10 µM
In short: (§1)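 In 1536-well plates, cancer cell lines in 7.5 μl DMEM/F12 or RPMI with 10% FBS spent 24 hours at 37°C and 5% CO2 and were then dosed for 72 hours with final DMSO typically 0.2%. Viability was read by CellTiter-Glo 2.0 luminescence and scaled between blank-well and DMSO-well means. The single-agent IC50 was fitted from dose responses using a logistic curve in a non-linear mixed effects model, and that logistic curve had two parameters.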

[2] = compound: C1CN(CCC1(C(=O)N[C@@H](CCO)C2=CC=C(C=C2)Cl)N)C3=NC=NC4=C3C=CN4 [AZD5363]; settings: max 10 µM
In short: as §1

[3] = compound: C=CCn1c(=O)c2cnc(Nc3ccc(N4CCN(C)CC4)cc3)nc2n1-c1cccc(C(C)(C)O)n1 [AZD1775]; settings: max 3 µM
In short: as §1

[4] = compound: CC(=O)Nc1cccc(-n2c(=O)n(C3CC3)c(=O)c3c(Nc4ccc(I)cc4F)n(C)c(=O)c(C)c32)c1 [Trametinib]; settings: max 1 µM
In short: as §1

[5] = compound: CC(=O)O[C@H]1C(=O)[C@@]2(C)[C@H]([C@H](OC(=O)c3ccccc3)[C@]3(O)C[C@H](OC(=O)[C@H](O)[C@@H](NC(=O)c4ccccc4)c4ccccc4)C(C)=C1C3(C)C)[C@]1(OC(C)=O)CO[C@@H]1C[C@@H]2O [Paclitaxel]; settings: max 3 µM
In short: as §1

[6] = compound: CC(=O)c1c(C)c2cnc(Nc3ccc(N4CCNCC4)cn3)nc2n(C2CCCC2)c1=O [Palbociclib]; settings: max 10 µM
In short: as §1

[7] = compound: CC(C)n1c(=O)n(C)c2cnc3cc(F)c(-c4ccc(OCCCN5CCCCC5)nc4)cc3c21 [AZD1390]; settings: max 0.3 µM
In short: as §1

[8] = compound: CC1(C)CCC(CN2CCN(c3ccc(C(=O)NS(=O)(=O)c4ccc(NCC5CCOCC5)c([N+](=O)[O-])c4)c(Oc4cnc5[nH]ccc5c4)c3)CC2)=C(c2ccc(Cl)cc2)C1 [Venetoclax]; settings: max 1 µM
In short: as §1

[9] = compound: CC1=C(C(=CC=C1)Cl)NC(=O)C2=CN=C(S2)NC3=CC(=NC(=N3)C)N4CCN(CC4)CCO [Dasatinib]; settings: max 2 µM
In short: as §1

[10] = compound: CC1=CN2[C@@H](C1)C=NC3=CC(=C(C=C3C2=O)OC)OCCCCCOC4=C(C=C5C(=C4)N=C[C@@H]6CC(=CN6C5=O)C)OC [SG3199]; settings: max 0.001 µM
In short: as §1

[11] = compound: CCN(CCO)CCCOc1ccc2c(Nc3cc(CC(=O)Nc4cccc(F)c4)[nH]n3)ncnc2c1 [AZD2811]; settings: max 1 µM
In short: as §1

[12] = compound: CCc1c2c(nc3ccc(O)cc13)-c1cc3c(c(=O)n1C2)COC(=O)[C@]3(O)CC [SN-38]; settings: max 0.3 µM
In short: as §1

[13] = compound: CN(C)CCCOc1ccc(-c2ccc3ncc4c(c3c2)n(C2CCOCC2)c(=O)n4C)cn1 [AZD0156]; settings: max 3 µM
In short: as §1

[14] = compound: CN(CC[C@H](CSC1=CC=CC=C1)NC2=C(C=C(C=C2)S(=O)(=O)NC(=O)C3=CC=C(C=C3)N4CCC(CC4)[C@H](C5=CC=CC=C5C6=CC=C(C=C6)Cl)O)S(=O)(=O)C(F)(F)F)CCO [AZD4320]; settings: max 1 µM
In short: as §1

[15] = compound: COc1cc(Nc2ncc3c(n2)-c2ccc(Cl)cc2C(c2c(F)cccc2OC)=NC3)ccc1C(=O)O [Alisertib]; settings: max 10 µM
In short: as §1

[16] = compound: COc1cc([C@@H]2c3cc4c(cc3[C@@H](O[C@@H]3O[C@@H]5CO[C@@H](C)O[C@H]5[C@H](O)[C@H]3O)[C@H]3COC(=O)[C@H]23)OCO4)cc(OC)c1O [Etoposide]; settings: max 10 µM
In short: as §1

[17] = compound: COc1cc2ncnc(Nc3ccc(F)c(Cl)c3)c2cc1OCCCN1CCOCC1 [Gefitinib]; settings: max 10 µM
In short: as §1

[18] = compound: COc1cccc(OCCCN)c1-c1cc(Nc2cnc(C#N)cn2)n[nH]1 [Prexasertib]; settings: max 1 µM
In short: as §1

[19] = compound: COc1cccc2c1C(=O)c1c(O)c3c(c(O)c1C2=O)C[C@@](O)(C(=O)CO)C[C@@H]3O[C@H]1C[C@H](N)[C@H](O)[C@H](C)O1 [Doxorubicin]; settings: max 1 µM
In short: as §1

[20] = compound: COc1nnc2ccc(N3CCC(c4ccc(OCCN5CCN(C)C(=O)[C@H]5C)cc4)CC3)nn12 [AZD5153]; settings: max 1 µM
In short: as §1

[21] = compound: CS(=O)(=O)CCNCc1ccc(-c2ccc3ncnc(Nc4ccc(OCc5cccc(F)c5)c(Cl)c4)c3c2)o1 [Lapatinib]; settings: max 10 µM
In short: as §1

[22] = compound: C[C@@H](Nc1cc(F)cc(F)c1)c1cc(C(=O)N(C)C)cc2c(=O)cc(N3CCOCC3)oc12 [AZD8186]; settings: max 10 µM
In short: as §1

[23] = compound: C[C@@H](Oc1cc(-c2cnn(C3CCNCC3)c2)cnc1N)c1c(Cl)ccc(F)c1Cl [Crizotinib]; settings: max 10 µM
In short: as §1

[24] = compound: C[C@@H](c1ccc2nccn2c1)n1nnc2ncc(-c3cnn(C)c3)nc21 [Savolitinib]; settings: max 1 µM
In short: as §1

[25] = compound: C[C@@H]1COCCN1C2=NC(=NC(=C2)C3(CC3)[S@](=N)(=O)C)C4=C5C=CNC5=NC=C4 [AZD6738]; settings: max 10 µM
In short: as §1

[26] = compound: Cc1c2c(nn1C)CSCc1cc(n(C)n1)CSc1cc(c3ccccc3c1)OCCCc1c(C(=O)O)n(C)c3c-2c(Cl)ccc13 [AZD5991]; settings: max 1 µM
In short: as §1

[27] = compound: Cc1cc2ncnn2cc1Nc1ncc2c(n1)n(C1CCOCC1)c(=O)n2C [AZD7648]; settings: max 10 µM
In short: as §1

[28] = compound: Cc1nc(-c2cn3c(n2)-c2ccc(-c4cnn(C(C)(C)C(N)=O)c4)cc2OCC3)n(C(C)C)n1 [Taselisib]; settings: max 10 µM
In short: as §1

[29] = compound: Cn1cnc2c(F)c(Nc3ccc(Br)cc3Cl)c(C(=O)NOCCO)cc21 [Selumetinib]; settings: max 10 µM
In short: as §1

[30] = compound: N#Cc1cnc(Nc2cc(NC[C@H]3CNCCO3)c(C(F)(F)F)cn2)cn1 [SRA737]; settings: max 10 µM
In short: as §1

[31] = compound: NC1(c2ccc(-c3nc4ccn5c(=O)[nH]nc5c4cc3-c3ccccc3)cc2)CCC1 [MK-2206]; settings: max 10 µM
In short: as §1

[32] = compound: Nc1ccn([C@@H]2O[C@H](CO)[C@@H](O)C2(F)F)c(=O)n1 [Gemcitabine]; settings: max 0.3 µM
In short: as §1

[33] = compound: O=C(Nc1ccc2[nH]nc(-c3ccncc3)c2c1)[C@@H]1CCN(CC(=O)N2CCN(c3ccc(-c4ncccn4)cc3)CC2)C1; settings: max 5 µM
In short: as §1

[34] = compound: O=C(c1cc(Cc2n[nH]c(=O)c3ccccc23)ccc1F)N1CCN(C(=O)C2CC2)CC1 [Olaparib]; settings: max 10 µM
In short: as §1

[35] = compound: O=c1[nH]cc(F)c(=O)[nH]1 [5-Fluorouracil]; settings: max 20 µM
In short: as §1

Row | Cell Line | IC50, cell viability 72 h [1] [nM] | IC50, cell viability 72 h [2] [nM] | IC50, cell viability 72 h [3] [nM] | IC50, cell viability 72 h [4] [nM] | IC50, cell viability 72 h [5] [nM] | IC50, cell viability 72 h [6] [nM] | IC50, cell viability 72 h [7] [nM] | IC50, cell viability 72 h [8] [nM] | IC50, cell viability 72 h [9] [nM] | IC50, cell viability 72 h [10] [nM] | IC50, cell viability 72 h [11] [nM] | IC50, cell viability 72 h [12] [nM] | IC50, cell viability 72 h [13] [nM] | IC50, cell viability 72 h [14] [nM] | IC50, cell viability 72 h [15] [nM] | IC50, cell viability 72 h [16] [nM] | IC50, cell viability 72 h [17] [nM] | IC50, cell viability 72 h [18] [nM] | IC50, cell viability 72 h [19] [nM] | IC50, cell viability 72 h [20] [nM] | IC50, cell viability 72 h [21] [nM] | IC50, cell viability 72 h [22] [nM] | IC50, cell viability 72 h [23] [nM] | IC50, cell viability 72 h [24] [nM] | IC50, cell viability 72 h [25] [nM] | IC50, cell viability 72 h [26] [nM] | IC50, cell viability 72 h [27] [nM] | IC50, cell viability 72 h [28] [nM] | IC50, cell viability 72 h [29] [nM] | IC50, cell viability 72 h [30] [nM] | IC50, cell viability 72 h [31] [nM] | IC50, cell viability 72 h [32] [nM] | IC50, cell viability 72 h [33] [nM] | IC50, cell viability 72 h [34] [nM] | IC50, cell viability 72 h [35] [nM]
1 | NCI-H3122 (Lung Adenocarcinoma) | > 10000 | > 10000 | > 3000 | 58.9 | 9.01 | 2580 | > 300 | > 1000 | > 2000 | > 1 | > 1000 | 17.7 | > 3000 | > 1000 | > 10000 | > 10000 | > 10000 | 315 | 237 | 612 | > 10000 | > 10000 | 323 | > 1000 | 7460 | > 1000 | > 10000 | 1080 | 7820 | > 10000 | 7950 | 32 | 958 | > 10000 | > 20000
2 | SJSA-1 (Osteosarcoma) | > 10000 | > 10000 | > 3000 | > 1000 | 79.9 | > 10000 | > 300 | > 1000 | > 2000 | > 1 | > 1000 | 87.9 | > 3000 | > 1000 | > 10000 | > 10000 | > 10000 | 156 | > 1000 | 533 | > 10000 | > 10000 | > 10000 | > 1000 | > 10000 | > 1000 | > 10000 | 4810 | > 10000 | > 10000 | > 10000 | 82.1 | > 5000 | > 10000 | > 20000
3 | KYSE-270 (Esophageal Squamous Cell Carcinoma) | > 10000 | > 10000 | 665 | > 1000 | 39.4 | > 10000 | > 300 | > 1000 | 506 | > 1 | > 1000 | 10.7 | > 3000 | > 1000 | > 10000 | 4580 | 8190 | 8.06 | 424 | > 1000 | 7840 | > 10000 | > 10000 | > 1000 | 4160 | > 1000 | > 10000 | 3470 | > 10000 | 1400 | > 10000 | 35.9 | > 5000 | > 10000 | 14900
4 | NCCIT (Other Solid Carcinomas) | > 10000 | 8120 | 561 | > 1000 | 11.8 | > 10000 | > 300 | > 1000 | > 2000 | > 1 | > 1000 | > 300 | > 3000 | > 1000 | > 10000 | > 10000 | > 10000 | 70.3 | > 1000 | 33.6 | > 10000 | > 10000 | > 10000 | > 1000 | 8410 | 891 | > 10000 | 1620 | > 10000 | > 10000 | 6670 | > 300 | > 5000 | > 10000 | > 20000
5 | NCI-H520 (Squamous Cell Lung Carcinoma) | > 10000 | 4010 | 1030 | > 1000 | 43.1 | 4770 | > 300 | > 1000 | > 2000 | > 1 | > 1000 | 46 | > 3000 | > 1000 | 8620 | > 10000 | > 10000 | 44.3 | > 1000 | 923 | > 10000 | 4990 | > 10000 | > 1000 | 7340 | > 1000 | > 10000 | 2340 | > 10000 | > 10000 | 1870 | 93.6 | > 5000 | > 10000 | > 20000
